Results: ChEMBL document CHEMBL5226318, “Emerging Therapeutic Potential of SIRT6 Modulators” (J Med Chem, 2021)

Assay: Oral bioavailability in C57BL/6J mouse
Type: ADME, organism-based
Settings: in vivo

Row | bioavailability | SMILES
1 | 71.3% | COC(=O)c1cc(NS(=O)(=O)c2cc(Cl)cc(Cl)c2)ccc1S(=O)(=O)Nc1cc(Br)c(F)cc1C
2 | 93% | Cc1cc(F)c(Br)cc1NS(=O)(=O)c1ccc(NS(=O)(=O)c2cc(Cl)cc(Cl)c2)cc1CN1CCOC[C@H]1C
